Results: patent US20240002404A1, “SALT OF PYRROLOPYRIMIDINE COMPOUND, CRYSTALLINE FORM THEREOF, AND APPLICATION THEREOF” (GUANGZHOU JOYO PHARMATECH CO., LTD, priority 2020, published 2024)

What was measured:
[1] = Basic pKa of the compound; assay type: physicochemical
From the text: The present disclosure also performs salt-forming screening on L-aspartic acid, fumaric acid, L-tartaric acid and citric acid. Using the crystal form A of the compound represented by formula (II) as raw material, according to the basic pKa (4.47) of the compound and the rough solubility of the starting material in different solvents at room temperature, L-aspartic acid, fumaric acid, L-tartaric acid and citric acid were selected as acidic ligands (molar ratio of free state to acidic ligand was 1:1), and the specific steps of the screening test of five solvent systems as shown in Table 24 were as follows: about 20 mg of the starting crystal form A of the compound represented by formula (II) and equimolar amounts of the above acid were weighed into an HPLC vial, and 0.5 mL of the following solvent were added thereto and mixed to obtain a suspension. After suspending and stirring at room temperature for 3 days, the solid was separated by centrifugation and dried under vacuum at room temperature for about 4 hours.

TYK2(h) = TYK2(h) (Homo sapiens (Human), UniProt P29597); experiment: In vitro activity assay of TYK2 kinase (radiometric, Eurofins); assay type: biochemical
Sequence of TYK2(h) (P29597 whole entry): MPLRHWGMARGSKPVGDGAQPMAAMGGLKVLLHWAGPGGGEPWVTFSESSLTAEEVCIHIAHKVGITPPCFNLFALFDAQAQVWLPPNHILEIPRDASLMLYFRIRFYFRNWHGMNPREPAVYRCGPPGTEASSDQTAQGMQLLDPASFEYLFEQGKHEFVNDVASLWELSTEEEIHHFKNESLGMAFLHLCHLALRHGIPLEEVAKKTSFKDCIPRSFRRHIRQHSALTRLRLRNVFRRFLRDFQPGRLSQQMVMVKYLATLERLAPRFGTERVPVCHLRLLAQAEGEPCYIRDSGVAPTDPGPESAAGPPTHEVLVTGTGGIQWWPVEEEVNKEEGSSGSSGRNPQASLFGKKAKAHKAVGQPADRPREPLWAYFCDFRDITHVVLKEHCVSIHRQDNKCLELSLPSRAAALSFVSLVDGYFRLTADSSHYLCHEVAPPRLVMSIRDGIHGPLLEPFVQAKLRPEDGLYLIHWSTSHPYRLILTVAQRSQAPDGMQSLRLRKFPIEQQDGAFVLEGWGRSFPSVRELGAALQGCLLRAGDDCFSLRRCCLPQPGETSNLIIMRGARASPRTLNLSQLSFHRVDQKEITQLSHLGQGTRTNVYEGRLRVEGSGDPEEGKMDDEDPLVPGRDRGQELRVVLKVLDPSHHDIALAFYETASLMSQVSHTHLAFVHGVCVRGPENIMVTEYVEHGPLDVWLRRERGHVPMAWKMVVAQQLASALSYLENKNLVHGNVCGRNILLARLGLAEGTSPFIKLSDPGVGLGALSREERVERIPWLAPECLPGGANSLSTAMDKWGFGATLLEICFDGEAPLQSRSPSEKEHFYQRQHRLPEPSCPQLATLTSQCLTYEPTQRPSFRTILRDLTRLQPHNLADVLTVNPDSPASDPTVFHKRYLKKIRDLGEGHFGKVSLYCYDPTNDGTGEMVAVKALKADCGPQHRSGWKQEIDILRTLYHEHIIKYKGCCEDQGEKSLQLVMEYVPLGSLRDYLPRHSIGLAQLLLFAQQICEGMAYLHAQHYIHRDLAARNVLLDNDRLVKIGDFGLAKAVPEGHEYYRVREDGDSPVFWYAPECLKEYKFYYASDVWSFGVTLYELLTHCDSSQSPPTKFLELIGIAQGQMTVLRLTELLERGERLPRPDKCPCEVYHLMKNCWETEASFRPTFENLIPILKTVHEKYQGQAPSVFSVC
Description: (§1) Recombinant human JAK1, JAK2, JAK3 and TYK2 […], and main instruments and reagents were provided by Eurofins, UK.
(§2) Dilution of JAK2, JAK3 and TYK2: 20 mM 3-(N-morpholino)propanesulfonic acid (MOPS), 1 mM EDTA, 0.01% Brij-35.5% glycerol, 0.1% β-mercaptoethanol, 1 mg/mL BSA; dilution of JAK1: 20 mM TRIS, 0.2 mM EDTA, 0.1% β-mercaptoethanol, 0.01% Brij-35.5% glycerol. All compounds were prepared into a 100% DMSO solution and brought to 50-fold the final assay concentration. The test compounds were diluted in 3-fold concentration gradient with 9 final concentrations from 10 μM to 0.001 μM, wherein DMSO content in the assay reaction was 2%. Working stock solutions of the compounds were added to the assay wells as the first component of the reaction, and then the remaining components were added according to the protocol detailed for the assay below.
(§3) TYK2(h) was incubated with 8 mM MOPS pH 7.0, 0.2 mM EDTA, 250 μM GGMEDIYFEFMGGKKK, 10 mM magnesium acetate and [γ-^33P]-ATP (activity and concentration were determined as required). […] 10 μL of the reaction mixture was then added dropwise on a P30 filter pad and washed three times with 0.425% phosphoric acid and once with methanol within 4 minutes, then dried and analyzed using a scintillation counter.

in vitro = conditions: human, Caco-2, pH 7.4
Description: (§4) The transport buffer solution was HBSS (Hanks' balanced salt solution) and 10 mM HEPES [N-(2-hydroxyethyl)piperazine-N-(2-ethanesulfonic acid) solution], with a pH value of 7.40±0.05; Caco-2 cells were purchased from ATCC.
(§5) Caco-2 cells were seeded at 1×10^5 cells/cm^2 in 96-well BD insert plates of polyethylene terephthalate (PET), and the medium was refreshed every 4-5 days until day 21-28 to form a confluent monolayer. Test compounds were tested in a two-way format at 2 μM in duplicate. Digoxin was added at 10 μM in the two-way format, and nadolol and metoprolol were added at 2 μM in the two-way format. Final concentration of DMSO was adjusted to less than 1%. The plates were incubated in a CO2 incubator at 37±1° C. for 2 h with 5% CO2 at saturated humidity without shaking. All samples were mixed with acetonitrile containing an internal standard, and centrifuged at 4000 rpm for 10 min. 100 microliters of supernatant was diluted with 100 microliters of distilled water for LC/MS/MS analysis. By LC/MS/MS analysis, the concentrations of the test compounds and the reference compound in the initial test article solution, the test article solution and the test compound solution using the peak area ratio of the analyte to the internal standard. After the transport test, the integrity of the Caco-2 cell monolayer was determined by fluorescein yellow exclusion reaction, and the apparent permeability coefficient and efflux ratio were calculated.

[2] = system: adjuvant-induced arthritis (AIA); experiment: Adjuvant-induced arthritis (AIA) in rats, in-vivo pharmacodynamic study; set-up: species or system Lewis rats; conditions: rat AIA
Description: The compounds disclosed herein were tested for their efficacy on arthritis using a model of adjuvant-induced arthritis in rat. Female, 160 to 180 gram Lewis rats were anesthetized with isoflurane and injected subcutaneously with 0.1 mL of Mycobacterium tuberculosis suspension in the left hind paw. The animals were grouped and administered with thetest compounds after 13 days of modeling, for example, the rats were given different doses as shown in Table 4-2. The test compound 1-13 was dissolved in a mixed menstruum of [5% DMSO, 95% (12% SBE-β-CD), 0.5% MC]. The female Lewis rats were orally administered 2 times daily (8 animals in each group).

JAK2(h) = JAK2(h) (Homo sapiens (Human), UniProt O60674); experiment: In vitro activity assay of JAK2 kinase (radiometric, Eurofins); assay type: biochemical
Sequence of JAK2(h) (O60674 whole entry): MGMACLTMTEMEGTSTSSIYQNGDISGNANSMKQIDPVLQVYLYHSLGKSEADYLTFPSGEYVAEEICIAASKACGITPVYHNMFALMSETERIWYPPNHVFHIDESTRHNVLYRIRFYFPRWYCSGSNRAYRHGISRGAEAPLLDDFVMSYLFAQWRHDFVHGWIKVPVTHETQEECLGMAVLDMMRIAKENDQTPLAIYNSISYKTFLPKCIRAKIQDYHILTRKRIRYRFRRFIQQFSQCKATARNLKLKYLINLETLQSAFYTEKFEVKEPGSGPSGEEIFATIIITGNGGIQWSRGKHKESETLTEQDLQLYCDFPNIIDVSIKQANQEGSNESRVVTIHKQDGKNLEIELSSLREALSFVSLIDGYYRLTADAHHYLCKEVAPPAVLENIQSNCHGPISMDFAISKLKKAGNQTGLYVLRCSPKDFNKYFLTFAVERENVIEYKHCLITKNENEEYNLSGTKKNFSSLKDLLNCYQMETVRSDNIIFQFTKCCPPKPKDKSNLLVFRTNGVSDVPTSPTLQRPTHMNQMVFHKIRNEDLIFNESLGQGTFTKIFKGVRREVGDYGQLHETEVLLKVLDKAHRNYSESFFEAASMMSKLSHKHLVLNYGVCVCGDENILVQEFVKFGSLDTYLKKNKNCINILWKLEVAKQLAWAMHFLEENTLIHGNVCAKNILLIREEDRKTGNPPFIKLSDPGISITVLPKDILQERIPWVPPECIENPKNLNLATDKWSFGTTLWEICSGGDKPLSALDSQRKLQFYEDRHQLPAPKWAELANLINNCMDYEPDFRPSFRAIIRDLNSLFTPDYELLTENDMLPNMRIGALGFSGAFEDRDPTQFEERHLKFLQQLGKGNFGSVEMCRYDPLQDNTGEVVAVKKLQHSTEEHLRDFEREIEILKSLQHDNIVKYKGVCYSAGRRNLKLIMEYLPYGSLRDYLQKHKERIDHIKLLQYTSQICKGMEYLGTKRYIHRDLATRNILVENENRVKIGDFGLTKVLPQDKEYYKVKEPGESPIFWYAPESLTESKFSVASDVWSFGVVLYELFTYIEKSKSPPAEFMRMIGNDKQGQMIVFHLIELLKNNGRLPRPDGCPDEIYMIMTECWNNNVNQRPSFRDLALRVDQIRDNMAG
Description: as §1, §2
JAK2(h) was incubated with 8 mM MOPS pH 7.0, 0.2 mM EDTA, 100 μM […], 10 mM magnesium acetate and [γ-^33P]-ATP (activity and concentration were determined as required). The reaction was started by adding the Mg/ATP mixture and terminated by adding 0.5% phosphoric acid after 40 min of incubation at room temperature. 10 μL of the reaction mixture was then added dropwise on a P30 filter pad and washed three times with 0.425% phosphoric acid and once with methanol within 4 minutes, then dried and analyzed using a scintillation counter.

JAK3(h) = JAK3(h) (Homo sapiens (Human), UniProt P52333); experiment: In vitro activity assay of JAK3 kinase (radiometric, Eurofins); assay type: biochemical
Sequence of JAK3(h) (P52333 whole entry): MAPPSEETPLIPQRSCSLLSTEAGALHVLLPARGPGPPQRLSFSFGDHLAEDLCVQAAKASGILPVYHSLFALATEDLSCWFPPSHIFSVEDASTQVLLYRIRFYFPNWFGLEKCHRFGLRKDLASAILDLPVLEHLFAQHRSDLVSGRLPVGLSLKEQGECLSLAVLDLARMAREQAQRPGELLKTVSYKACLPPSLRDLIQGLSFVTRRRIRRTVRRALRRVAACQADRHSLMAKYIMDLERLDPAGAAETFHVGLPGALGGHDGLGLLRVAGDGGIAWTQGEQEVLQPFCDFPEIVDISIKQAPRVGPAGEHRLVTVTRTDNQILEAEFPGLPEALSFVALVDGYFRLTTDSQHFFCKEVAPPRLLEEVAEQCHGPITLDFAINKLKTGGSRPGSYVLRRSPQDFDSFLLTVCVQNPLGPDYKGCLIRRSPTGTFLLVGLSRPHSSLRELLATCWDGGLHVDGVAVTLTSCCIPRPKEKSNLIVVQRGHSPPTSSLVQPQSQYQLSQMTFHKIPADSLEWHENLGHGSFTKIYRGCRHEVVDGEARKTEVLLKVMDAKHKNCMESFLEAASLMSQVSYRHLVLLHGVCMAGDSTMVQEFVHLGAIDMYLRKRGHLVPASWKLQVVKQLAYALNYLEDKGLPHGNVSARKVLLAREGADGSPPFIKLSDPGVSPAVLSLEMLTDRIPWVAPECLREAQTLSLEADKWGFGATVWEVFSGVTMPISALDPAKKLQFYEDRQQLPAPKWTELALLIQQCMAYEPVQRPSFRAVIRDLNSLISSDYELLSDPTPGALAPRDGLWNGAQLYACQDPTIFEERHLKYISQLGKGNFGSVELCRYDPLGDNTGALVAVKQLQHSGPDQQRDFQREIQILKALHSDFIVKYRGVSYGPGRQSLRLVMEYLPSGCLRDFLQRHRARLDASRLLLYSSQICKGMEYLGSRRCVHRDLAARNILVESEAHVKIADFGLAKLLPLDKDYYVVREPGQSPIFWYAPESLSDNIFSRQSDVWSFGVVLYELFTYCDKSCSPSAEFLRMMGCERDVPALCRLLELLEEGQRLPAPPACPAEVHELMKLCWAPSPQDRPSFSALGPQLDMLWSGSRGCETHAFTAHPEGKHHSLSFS
Description: as §1, §2
as §3, with “JAK3(h)” for “TYK2(h)”, “500” for “250”, “GGEEEEYFELVKKKK,” for “GGMEDIYFEFMGGKKK,”

[3] = Pharmacokinetic (PK) test in mice; assay type: in vivo, mice (C57BL/6); conditions: mouse, plasma, male C57BL/6 mice
Description: Clear solutions obtained by dissolving the test compounds were administered to male mice (C57BL/6) or rats (SD) by tail vein injection and oral gavage (overnight fasting, 7-8 weeks old). After the administration of the test compounds, blood was collected from the mandibular vein and centrifuged to obtain plasma at 0.117, 0.333, 1, 2, 4, 7 and 24 h for the intravenous injection group (1 mg/kg), and at 0.25, 0.5, 1, 2, 4, 8 and 24 h for the oral gavage group (3 mg/kg). The plasma concentration was measured by LC-MS/MS, and the relevant pharmacokinetic parameters were calculated by WinNonlin™ Version 6.3 pharmacokinetic software using non-compartmental model linear logarithmic trapezoid method.

JAK1(h) = JAK1(h) (Homo sapiens (Human), UniProt P23458); experiment: In vitro activity assay of JAK1 kinase (radiometric, Eurofins); assay type: biochemical
Sequence of JAK1(h) (P23458 whole entry): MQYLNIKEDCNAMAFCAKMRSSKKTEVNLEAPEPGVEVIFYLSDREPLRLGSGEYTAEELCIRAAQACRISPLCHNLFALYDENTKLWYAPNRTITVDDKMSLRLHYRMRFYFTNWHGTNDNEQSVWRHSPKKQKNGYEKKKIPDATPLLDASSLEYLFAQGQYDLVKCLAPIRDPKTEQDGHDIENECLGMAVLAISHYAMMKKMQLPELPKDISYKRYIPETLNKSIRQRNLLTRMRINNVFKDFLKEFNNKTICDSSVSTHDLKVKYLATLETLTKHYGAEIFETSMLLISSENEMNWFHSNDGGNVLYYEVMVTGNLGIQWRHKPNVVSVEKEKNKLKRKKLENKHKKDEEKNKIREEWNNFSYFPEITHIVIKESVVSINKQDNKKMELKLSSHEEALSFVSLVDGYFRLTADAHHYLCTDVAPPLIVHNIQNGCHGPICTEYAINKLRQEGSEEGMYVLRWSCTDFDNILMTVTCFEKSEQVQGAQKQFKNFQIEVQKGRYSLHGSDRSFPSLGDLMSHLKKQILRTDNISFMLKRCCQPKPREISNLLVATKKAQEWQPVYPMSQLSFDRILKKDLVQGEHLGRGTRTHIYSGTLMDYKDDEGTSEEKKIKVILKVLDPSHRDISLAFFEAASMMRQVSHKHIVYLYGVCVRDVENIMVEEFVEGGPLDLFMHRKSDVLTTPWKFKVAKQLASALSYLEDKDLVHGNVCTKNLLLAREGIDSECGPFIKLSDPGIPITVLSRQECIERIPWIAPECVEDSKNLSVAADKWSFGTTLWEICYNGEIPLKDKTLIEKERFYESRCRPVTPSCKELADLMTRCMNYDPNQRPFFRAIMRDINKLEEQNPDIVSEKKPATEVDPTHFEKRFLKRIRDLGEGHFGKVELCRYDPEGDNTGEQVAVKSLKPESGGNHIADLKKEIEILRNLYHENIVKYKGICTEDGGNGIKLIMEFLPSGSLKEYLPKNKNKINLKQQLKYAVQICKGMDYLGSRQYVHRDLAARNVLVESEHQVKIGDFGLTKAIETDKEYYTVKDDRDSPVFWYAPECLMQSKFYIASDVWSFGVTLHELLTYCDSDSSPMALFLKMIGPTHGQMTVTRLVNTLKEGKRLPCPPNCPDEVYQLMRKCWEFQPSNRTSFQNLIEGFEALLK
Description: as §1, §2
as §3, with “JAK1(h)” for “TYK2(h)”, “20” for “8”, “Tris/HCl” for “MOPS”, “7.5,” for “7.0,”, “500” for “250”, “MGEEPLYWSFPAKKK,” for “GGMEDIYFEFMGGKKK,”

Caco-2 cells = experiment: in vitro; conditions: Caco-2
Description: as §4, §5

[4] = iv 1 mg/kg, oral gavage 3 mg/kg

Row | pKa [1] | IC50 (TYK2(h)) | Papp A→B at 2 h, 2 μM (in vitro) | Papp B→A at 2 h, 2 μM (in vitro) | efflux ratio at 2 h, 2 μM (in vitro) | IC50 (JAK2(h)) | IC50 (JAK3(h)) | AUC(0-inf) [3, 4] | Cmax [3, 4] | half-life [3, 4] | bioavailability ([3]; oral gavage 3 mg/kg vs iv 1 mg/kg) | IC50 (JAK1(h)) | Mean apparent permeability coefficient Mean Papp A to B (Caco-2 cells) | SMILES | therapeutic effect (inhibition rate versus menstruum control group) ([2]; 3 mg/kg and 10 mg/kg, P<0.0001) | Inhibition on area under the clinical score curve (AUC) ([2]; 3 mg/kg oral 2 times daily) | Inhibition on area under the clinical score curve (AUC) ([2]; 10 mg/kg oral 2 times daily)
1 | 4.47 | 15 nM | 28.6 ×10⁻⁶ cm/s | 31.2 ×10⁻⁶ cm/s | 1.09 | 8 nM | 118 nM | 12.8 µM·h | 6 µM | 113 min | 88.4% | 1 nM |  | CN(c1ncnc2[nH]ccc12)[C@@H]1CCc2cc(C#N)nn2C1 | significant therapeutic effect | 49.6% | 60.5%
2 |  |  |  |  |  |  |  |  |  |  |  |  | 0.16 10^−6 cm/s | CC(C)(C)NCC(O)COc1cccc2c1CC(O)C(O)C2 (stereo not shown) [Nadolol] |  |  | 
